How the values were obtained:
[1] = system: Mycobacterium tuberculosis; assay: Antitubercular activity against Mycobacterium tuberculosis H37Rv ATCC 27294 after 5 to 8 days by microplate alamar blue assay; type: functional
[2] = system: Mycobacterium tuberculosis; assay: Antimycobacterial activity against Mycobacterium tuberculosis H37Rv ATCC 27294 assessed as growth inhibition at 6.25 ug/ml after 5 to 8 days by microplate alamar blue assay relative to control; type: functional; conditions: read-out: GI

## COc1ccc(N/N=C2\C(=O)Nc3c(ccc(Cl)c3Cl)C2=O)cc1
[1]
  MIC: > 6.25 µg/mL
[2]
  inhibition of growth at 6.25 µg/mL: 14%

## Cc1ccc(N/N=C2\C(=O)Nc3c(ccc(Cl)c3Cl)C2=O)cc1
[1]
  MIC: < 6.25 µg/mL
[2]
  inhibition of growth at 6.25 µg/mL: 54%

## O=C1Nc2cc(Cl)ccc2C(=O)/C1=N/Nc1ccc(F)cc1
[1]
  MIC: < 6.25 µg/mL
[2]
  inhibition of growth at 6.25 µg/mL: 50%

## Cc1cccc(N/N=C2\C(=O)Nc3c(cccc3[N+](=O)[O-])C2=O)c1C
[1]
  MIC: > 6.25 µg/mL
[2]
  inhibition of growth at 6.25 µg/mL: 48%

## O=C1Nc2cc(Cl)ccc2C(=O)/C1=N/Nc1cccc(Cl)c1
[1]
  MIC: > 6.25 µg/mL
[2]
  inhibition of growth at 6.25 µg/mL: 47%

## O=C1Nc2c(cccc2[N+](=O)[O-])C(=O)/C1=N/Nc1ccc(F)cc1
[1]
  MIC: > 6.25 µg/mL
[2]
  inhibition of growth at 6.25 µg/mL: 46%

## COc1ccc(N/N=C2\C(=O)Nc3c(cccc3[N+](=O)[O-])C2=O)c(C)c1
[1]
  MIC: > 6.25 µg/mL
[2]
  inhibition of growth at 6.25 µg/mL: 45%

## Cc1cccc(N/N=C2\C(=O)Nc3ccccc3C2=O)c1
[1]
  MIC: > 6.25 µg/mL
[2]
  inhibition of growth at 6.25 µg/mL: 42%

## O=C1Nc2ccccc2C(=O)/C1=N/Nc1cccc(Cl)c1
[1]
  MIC: > 6.25 µg/mL
[2]
  inhibition of growth at 6.25 µg/mL: 41%

## COc1ccc(N/N=C2\C(=O)Nc3c(Cl)ccc(Cl)c3C2=O)c(C)c1
[1]
  MIC: > 6.25 µg/mL
[2]
  inhibition of growth at 6.25 µg/mL: 40%

## COc1ccc(N/N=C2\C(=O)c3cccc([N+](=O)[O-])c3N(C)C2=O)c(C)c1
[1]
  MIC: > 6.25 µg/mL
[2]
  inhibition of growth at 6.25 µg/mL: 40%

## Cc1cccc2c1NC(=O)/C(=N\Nc1cccc(Cl)c1)C2=O
[1]
  MIC: > 6.25 µg/mL
[2]
  inhibition of growth at 6.25 µg/mL: 39%

## CN1C(=O)/C(=N\Nc2ccc(Cl)cc2)C(=O)c2ccccc21
[1]
  MIC: > 6.25 µg/mL
[2]
  inhibition of growth at 6.25 µg/mL: 38%

## COc1ccc(N/N=C2\C(=O)Nc3c(cccc3[N+](=O)[O-])C2=O)cc1
[1]
  MIC: > 6.25 µg/mL
[2]
  inhibition of growth at 6.25 µg/mL: 37%

## COc1ccc(N/N=C2\C(=O)Nc3c(Cl)ccc(Cl)c3C2=O)cc1
[1]
  MIC: > 6.25 µg/mL
[2]
  inhibition of growth at 6.25 µg/mL: 36%

## O=C1Nc2c(cccc2[N+](=O)[O-])C(=O)/C1=N/Nc1ccccc1-c1ccccc1
[1]
  MIC: > 6.25 µg/mL
[2]
  inhibition of growth at 6.25 µg/mL: 35%

## Cc1ccc(N/N=C2\C(=O)Nc3c(Cl)cccc3C2=O)cc1
[1]
  MIC: > 6.25 µg/mL
[2]
  inhibition of growth at 6.25 µg/mL: 34%

## O=C1Nc2c(ccc(Cl)c2Cl)C(=O)/C1=N/Nc1cccc(F)c1
[1]
  MIC: < 6.25 µg/mL
[2]
  inhibition of growth at 6.25 µg/mL: 80%

## O=C1Nc2c(Cl)ccc(Cl)c2C(=O)/C1=N/Nc1ccc(F)cc1
[1]
  MIC: < 6.25 µg/mL
[2]
  inhibition of growth at 6.25 µg/mL: 80%

## O=C1Nc2cc(Cl)ccc2C(=O)/C1=N/Nc1ccccc1
[1]
  MIC: < 6.25 µg/mL
[2]
  inhibition of growth at 6.25 µg/mL: 76%

## Cc1cccc(N/N=C2\C(=O)Nc3cc(C)ccc3C2=O)c1
[1]
  MIC: < 6.25 µg/mL
[2]
  inhibition of growth at 6.25 µg/mL: 76%

## O=C1Nc2ccc(Cl)cc2C(=O)/C1=N/Nc1ccc(F)cc1
[1]
  MIC: < 6.25 µg/mL
[2]
  inhibition of growth at 6.25 µg/mL: 71%

## O=C1Nc2c(cccc2[N+](=O)[O-])C(=O)/C1=N/Nc1ccc([N+](=O)[O-])cc1
[1]
  MIC: < 6.25 µg/mL
[2]
  inhibition of growth at 6.25 µg/mL: 65%

## Cc1cccc(N/N=C2\C(=O)Nc3c(ccc(Cl)c3Cl)C2=O)c1
[1]
  MIC: < 6.25 µg/mL
[2]
  inhibition of growth at 6.25 µg/mL: 62%

## Cc1c(Cl)cccc1N/N=C1\C(=O)Nc2c(cccc2[N+](=O)[O-])C1=O
[1]
  MIC: < 6.25 µg/mL
[2]
  inhibition of growth at 6.25 µg/mL: 56%

## COc1ccc(N/N=C2\C(=O)Nc3ccc(Cl)cc3C2=O)cc1
[1]
  MIC: < 6.25 µg/mL
[2]
  inhibition of growth at 6.25 µg/mL: 55%

## Cc1ccccc1N/N=C1/C(=O)c2ccccc2N(C)C1=O
[1]
  MIC: < 6.25 µg/mL
[2]
  inhibition of growth at 6.25 µg/mL: 97%

## COc1ccccc1N/N=C1\C(=O)Nc2cc([N+](=O)[O-])ccc2C1=O
[1]
  MIC: < 6.25 µg/mL
[2]
  inhibition of growth at 6.25 µg/mL: 96%

## O=C1Nc2ccc(Cl)cc2C(=O)/C1=N/Nc1cccc([N+](=O)[O-])c1
[1]
  MIC: < 6.25 µg/mL
[2]
  inhibition of growth at 6.25 µg/mL: 96%

## O=C1Nc2ccc(Cl)cc2C(=O)/C1=N/Nc1ccc(Cl)c(Cl)c1
[1]
  MIC: < 6.25 µg/mL
[2]
  inhibition of growth at 6.25 µg/mL: 95%

## Cc1ccc(N/N=C2\C(=O)Nc3cc([N+](=O)[O-])ccc3C2=O)cc1
[1]
  MIC: < 6.25 µg/mL
[2]
  inhibition of growth at 6.25 µg/mL: 92%

## O=C1Nc2ccc(Cl)cc2C(=O)/C1=N/Nc1ccc([N+](=O)[O-])cc1
[1]
  MIC: < 6.25 µg/mL
[2]
  inhibition of growth at 6.25 µg/mL: 91%

## CC(=O)c1ccc(N/N=C2\C(=O)Nc3c(cccc3[N+](=O)[O-])C2=O)cc1
[1]
  MIC: < 6.25 µg/mL
[2]
  inhibition of growth at 6.25 µg/mL: 89%

## O=C1Nc2c(cccc2[N+](=O)[O-])C(=O)/C1=N/Nc1ccc(F)c(Cl)c1
[1]
  MIC: < 6.25 µg/mL
[2]
  inhibition of growth at 6.25 µg/mL: 85%

## O=C1Nc2c(ccc(Cl)c2Cl)C(=O)/C1=N/Nc1cccc(Cl)c1
[1]
  MIC: < 6.25 µg/mL
[2]
  inhibition of growth at 6.25 µg/mL: 82%

## O=C1Nc2c(Cl)cccc2C(=O)/C1=N/Nc1ccccc1
[1]
  MIC: < 6.25 µg/mL
[2]
  inhibition of growth at 6.25 µg/mL: 100%

## O=C1Nc2cc([N+](=O)[O-])ccc2C(=O)/C1=N/Nc1ccc(F)cc1
[1]
  MIC: < 6.25 µg/mL
[2]
  inhibition of growth at 6.25 µg/mL: 100%

## O=C1Nc2c(cccc2[N+](=O)[O-])C(=O)/C1=N/Nc1ccccc1
[1]
  MIC: < 6.25 µg/mL
[2]
  inhibition of growth at 6.25 µg/mL: 99%

## CC(=O)c1ccc(N/N=C2\C(=O)Nc3c(ccc(Cl)c3Cl)C2=O)cc1
[1]
  MIC: < 6.25 µg/mL
[2]
  inhibition of growth at 6.25 µg/mL: 98%

Source: ChEMBL document CHEMBL2417447, “Synthesis and binary QSAR study of antitubercular quinolylhydrazides” (2013)
